In PubChem BioAssay (NCI):
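All cell lines were grown in 96-well plates and treated with compound for 48 hours. Definition used: TGI = concentration required for complete inhibition of growth.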

Key:
Experiment in all cases: NCI anticancer screen, dose series, 48 h
[1] = test system: MDA-MB-231 breast
[2] = test system: DU-145 prostate
[3] = test system: SN12C renal
[4] = test system: PC-3 prostate
[5] = test system: SK-OV-3 ovarian
[6] = test system: T-47D breast
[7] = test system: SNB-19 CNS
[8] = test system: RXF 393 renal
[9] = test system: CAKI-1 renal
[10] = test system: SNB-75 CNS
[11] = test system: K-562 leukemia
[12] = test system: SK-MEL-5 melanoma
[13] = test system: MCF7 breast
[14] = test system: ACHN renal
[15] = test system: TK-10 renal
[16] = test system: SR leukemia
[17] = test system: HCC-2998 colon
[18] = test system: KM12 colon
[19] = test system: HT29 colon
[20] = test system: EKVX NSCLC
[21] = test system: NCI-H23 lung
[22] = test system: 786-0 renal
[23] = test system: U251 CNS
[24] = test system: HCT-116 colon
[25] = test system: COLO 205 colon
[26] = test system: UACC-257 melanoma
[27] = test system: HOP-92 NSCLC
[28] = test system: SF-539 CNS
[29] = test system: LOX IMVI melanoma
[30] = test system: SW-620 colon
[31] = test system: SF-295 CNS
[32] = test system: RPMI-8226 leukemia
[33] = test system: UO-31 renal
[34] = test system: SK-MEL-28 melanoma
[35] = test system: A549 NSCLC
[36] = test system: HL-60(TB) leukemia
[37] = test system: MDA-MB-435
[38] = test system: OVCAR-8 ovarian
[39] = test system: SF-268 CNS
[40] = test system: NCI-H460 lung
[41] = test system: HS 578T breast
[42] = test system: CCRF-CEM leukemia
[43] = test system: HOP-62 NSCLC
[44] = test system: HCT-15 colon
[45] = test system: IGROV1 ovarian
[46] = test system: OVCAR-3 ovarian
[47] = test system: OVCAR-5 ovarian
[48] = test system: MOLT-4 leukemia
[49] = test system: OVCAR-4 ovarian
[50] = test system: MDA-N
[51] = test system: SK-MEL-2 melanoma
[52] = test system: UACC-62 melanoma
[53] = test system: A498 renal
[54] = test system: M14 melanoma
[55] = test system: BT-549 breast
[56] = test system: NCI-H226 lung
[57] = test system: NCI/ADR-RES ovarian
[58] = test system: NCI-H522 lung
[59] = test system: KM20L2 colon
[60] = test system: DLD-1 colon
[61] = test system: MALME-3M melanoma
[62] = test system: HOP-18 NSCLC
[63] = test system: LXFL 529 NSCLC
[64] = test system: SNB-78 CNS
[65] = test system: DMS 114 small cell lung
[66] = test system: DMS 273 small cell lung
[67] = test system: XF 498 CNS
[68] = test system: M19-MEL melanoma

`O=C(/C=C/c1ccccc1)N1CCCCC1` gave a TGI [1] of over 100 µM, a TGI [2] of over 100 µM and a TGI [3] of over 100 µM. For the same compound, the TGI [4] was over 100 µM, the TGI [5] was over 100 µM and the TGI [6] was over 100 µM. The TGI [7] was over 100 µM, the TGI [8] was over 100 µM and the TGI [9] was over 100 µM. It also gave a TGI [10] of 89.2 µM, a TGI [11] of over 100 µM and a TGI [12] of over 100 µM. It also gave a TGI [13] of over 100 µM, a TGI [14] of over 100 µM and a TGI [15] of over 100 µM. It also gave a TGI [16] of over 100 µM, a TGI [17] of over 100 µM and a TGI [18] of over 100 µM. The TGI [19] was over 100 µM, the TGI [20] was over 100 µM and the TGI [21] was over 100 µM. The TGI [22] was over 100 µM, the TGI [23] was over 100 µM and the TGI [24] was over 100 µM. For the same compound, the TGI [25] was over 100 µM, the TGI [26] was over 100 µM and the TGI [27] was over 100 µM. For the same compound, the TGI [28] was over 100 µM, the TGI [29] was over 100 µM and the TGI [30] was over 100 µM. The TGI [31] was over 100 µM, the TGI [32] was over 100 µM and the TGI [33] was over 100 µM. The TGI [34] was over 100 µM, the TGI [35] was over 100 µM and the TGI [36] was over 100 µM. The TGI [37] was over 100 µM, the TGI [38] was over 100 µM and the TGI [39] was over 100 µM. The TGI [40] was over 100 µM, the TGI [41] was over 100 µM and the TGI [42] was over 100 µM. It also gave a TGI [43] of over 100 µM, a TGI [44] of over 100 µM and a TGI [45] of over 100 µM. It also gave a TGI [46] of over 100 µM, a TGI [47] of over 100 µM and a TGI [48] of over 100 µM. For the same compound, the TGI [49] was over 100 µM, the TGI [50] was over 100 µM and the TGI [51] was over 100 µM. For the same compound, the TGI [52] was over 100 µM, the TGI [53] was over 100 µM and the TGI [54] was over 100 µM. For the same compound, the TGI [55] was over 100 µM, the TGI [56] was over 100 µM and the TGI [57] was over 100 µM. For the same compound, the TGI [58] was over 100 µM.
With `CCCCC(=O)OC[n+]1ccc2c(C)c3[nH]c4ccccc4c3c(C)c2c1` the TGI [2] was 2.73 µM, the TGI [3] was 2 µM and the TGI [5] was 2.64 µM. It also gave a TGI [8] of 2.52 µM, a TGI [9] of 4.56 µM and a TGI [10] of 2.59 µM. The TGI [11] was 1.63 µM, the TGI [12] was 2.84 µM and the TGI [14] was 1.81 µM. For the same compound, the TGI [15] was 5.01 µM, the TGI [16] was 2.31 µM and the TGI [59] was 2.79 µM. The TGI [17] was 0.978 µM, the TGI [60] was 1.64 µM and the TGI [18] was 2 µM. The TGI [19] was 2.44 µM, the TGI [20] was 3.04 µM and the TGI [61] was 2.98 µM. The TGI [22] was 1.62 µM, the TGI [25] was 2.22 µM and the TGI [27] was 6.44 µM. For the same compound, the TGI [28] was 2 µM, the TGI [31] was 1.97 µM and the TGI [33] was 3.69 µM. The TGI [36] was 2.93 µM, the TGI [42] was 4.08 µM and the TGI [43] was 2.05 µM. The TGI [44] was 1.59 µM, the TGI [45] was 6.23 µM and the TGI [46] was 2.54 µM. The TGI [47] was 1.82 µM, the TGI [48] was 3.01 µM and the TGI [62] was 9.74 µM. It also gave a TGI [51] of 11.5 µM, a TGI [52] of 1.72 µM and a TGI [53] of 2.62 µM. For the same compound, the TGI [56] was 2.06 µM, the TGI [57] was 2.93 µM and the TGI [58] was 2.33 µM.
`CCOC(=O)c1ccc(NC(=O)SCCC(=O)O)cc1` showed a TGI [63] of over 100 µM, a TGI [3] of over 100 µM and a TGI [7] of over 100 µM. It also gave a TGI [8] of over 100 µM, a TGI [10] of 23.1 µM and a TGI [64] of over 100 µM. It also gave a TGI [11] of over 100 µM, a TGI [14] of over 100 µM and a TGI [15] of over 100 µM. It also gave a TGI [16] of over 100 µM, a TGI [65] of over 100 µM and a TGI [59] of over 100 µM. It also gave a TGI [17] of over 100 µM, a TGI [60] of over 100 µM and a TGI [18] of over 100 µM. It also gave a TGI [19] of over 100 µM, a TGI [20] of over 100 µM and a TGI [21] of over 100 µM. It also gave a TGI [22] of over 100 µM, a TGI [23] of over 100 µM and a TGI [24] of over 100 µM. For the same compound, the TGI [25] was over 100 µM, the TGI [26] was over 100 µM and the TGI [66] was over 100 µM. The TGI [28] was over 100 µM, the TGI [29] was over 100 µM and the TGI [30] was over 100 µM. It also gave a TGI [31] of over 100 µM, a TGI [32] of over 100 µM and a TGI [33] of over 100 µM. It also gave a TGI [34] of over 100 µM, a TGI [35] of over 100 µM and a TGI [36] of over 100 µM. For the same compound, the TGI [38] was over 100 µM, the TGI [39] was 54 µM and the TGI [40] was over 100 µM. For the same compound, the TGI [42] was over 100 µM, the TGI [43] was over 100 µM and the TGI [44] was over 100 µM. For the same compound, the TGI [45] was over 100 µM, the TGI [46] was over 100 µM and the TGI [47] was over 100 µM. For the same compound, the TGI [48] was over 100 µM, the TGI [51] was over 100 µM and the TGI [52] was over 100 µM. The TGI [53] was over 100 µM, the TGI [54] was over 100 µM and the TGI [56] was over 100 µM.
`COc1ccc(OC)c(CC(C)N)c1` (configuration not stated) showed a TGI [63] of over 100 µM, a TGI [3] of over 100 µM and a TGI [5] of over 100 µM. For the same compound, the TGI [67] was over 100 µM, the TGI [7] was over 100 µM and the TGI [8] was over 100 µM. For the same compound, the TGI [9] was over 100 µM, the TGI [10] was over 100 µM and the TGI [11] was over 100 µM. The TGI [12] was over 100 µM, the TGI [14] was over 100 µM and the TGI [15] was over 100 µM. It also gave a TGI [65] of over 100 µM, a TGI [59] of over 100 µM and a TGI [17] of over 100 µM. The TGI [60] was over 100 µM, the TGI [18] was over 100 µM and the TGI [19] was over 100 µM. It also gave a TGI [20] of over 100 µM, a TGI [21] of over 100 µM and a TGI [61] of over 100 µM. The TGI [22] was over 100 µM, the TGI [23] was over 100 µM and the TGI [24] was over 100 µM. For the same compound, the TGI [25] was over 100 µM, the TGI [26] was over 100 µM and the TGI [28] was over 100 µM. The TGI [29] was over 100 µM, the TGI [30] was over 100 µM and the TGI [31] was over 100 µM. The TGI [32] was over 100 µM, the TGI [33] was over 100 µM and the TGI [34] was over 100 µM. It also gave a TGI [35] of over 100 µM, a TGI [38] of over 100 µM and a TGI [39] of over 100 µM. The TGI [40] was over 100 µM, the TGI [42] was over 100 µM and the TGI [43] was over 100 µM. For the same compound, the TGI [44] was over 100 µM, the TGI [45] was over 100 µM and the TGI [46] was over 100 µM. For the same compound, the TGI [48] was over 100 µM, the TGI [49] was over 100 µM and the TGI [62] was over 100 µM. For the same compound, the TGI [68] was over 100 µM, the TGI [51] was over 100 µM and the TGI [52] was over 100 µM. The TGI [53] was over 100 µM, the TGI [54] was over 100 µM and the TGI [56] was over 100 µM. It also gave a TGI [58] of over 100 µM.
